Values quoted from earlier work as cited in patent US20170245495A1, “CHEMICAL LURE FOR ASIAN CITRUS PSYLLID” (The Regents of the University of California, priority 2014, published 2017).
Read-outs that look alike come from different tables or passages of the source.

System: D. citri
Settings: Mann et al. 2012, Patt and Setamou 2010

C=C/C(C)=C/CC=C(C)C [β-ocimene, (E)-β-ocimene]
attraction of D. citri (literature): attractive to D. citri

COC(=O)c1ccccc1O [methyl salicylate]
attraction of D. citri (literature): implicated as D. citri attractants
attraction of D. citri (literature) (listed as MeSA): attractant for D. citri

C=CC(C)(O)CCC=C(C)C (stereo not shown) [linalool]
attraction of D. citri (literature): attractive to D. citri
